From patent publication US7737250B2, “Peptides for treating axonal damage, inhibition of neurotransmitter release and pain transmission, and blocking calcium influx in neurons” (Mount Sinai School of Medicine of New York University, priority 2003, dated 2010)

What was measured:
[1] = tested on: Cav2.2 current; experiment: Whole-cell calcium current recording in DRG neurons; assay type: cell-based, chick; settings: 1.4 ng/ml peptide in recording pipette; after 2 minutes of recording
Method: Electrophysiology: Standard tight seal, whole-cell recording methods [Hamill et al.,1981 Pflugers Arch. 381, 85-10] were employed. Cells were incubated in an external solution containing 133 mM NaCl, 1 mM CaCl2, 0.8 mM MgCl2, 25 mM HEPES, 12.5 mM NaOH, 5mM glucose, 10 mM tetraethylammonium chloride, […] (pH 7.4). Experiments were performed on the stage of an inverted microscope. Recording pipettes were fabricated from microhemnatocrit tubing (Fisher) and filled with an internal recording solution containing 150 mM CsCl, 5 BAPTA, 5 MgATP, 10 HEPES (pH 7.2). All salts were obtained from Fluka. Initial pipette resistances were 0.8-1.2 MΩ. […]
Electrophysiology Data Analysis—Data was filtered at 3 kHz, acquired at 10-20 kHz and analyzed using PulseFit (HEKA) and IgorPro (WaveMetrics) on a Macintosh G3 computer. […] Such conditioning pulses have no effect on control currents recorded in the absence of GABA. During the application of the transmitter, test pulse currents measured before and after the conditioning pulse are subtracted to yield the voltage-dependent component. Test pulses measured following the conditioning pulse are subtracted from control currents (measured in the absence of GABA) to yield the voltage-independent component.

[2] = target: T1, L1-CAM-ankyrin interactions (Homo sapiens, UniProt Q01484); experiment: Ankyrin recruitment assay: ankyrinB co-localization with L1-CAM at the membrane of transfected 293 cells; assay type: cell-based; settings: 1.4 μg/ml peptide for 30 minutes
T1 construct: expressed in transfected cells; host or cells: human kidney 293 cells
T1 sequence (Q01484 whole entry): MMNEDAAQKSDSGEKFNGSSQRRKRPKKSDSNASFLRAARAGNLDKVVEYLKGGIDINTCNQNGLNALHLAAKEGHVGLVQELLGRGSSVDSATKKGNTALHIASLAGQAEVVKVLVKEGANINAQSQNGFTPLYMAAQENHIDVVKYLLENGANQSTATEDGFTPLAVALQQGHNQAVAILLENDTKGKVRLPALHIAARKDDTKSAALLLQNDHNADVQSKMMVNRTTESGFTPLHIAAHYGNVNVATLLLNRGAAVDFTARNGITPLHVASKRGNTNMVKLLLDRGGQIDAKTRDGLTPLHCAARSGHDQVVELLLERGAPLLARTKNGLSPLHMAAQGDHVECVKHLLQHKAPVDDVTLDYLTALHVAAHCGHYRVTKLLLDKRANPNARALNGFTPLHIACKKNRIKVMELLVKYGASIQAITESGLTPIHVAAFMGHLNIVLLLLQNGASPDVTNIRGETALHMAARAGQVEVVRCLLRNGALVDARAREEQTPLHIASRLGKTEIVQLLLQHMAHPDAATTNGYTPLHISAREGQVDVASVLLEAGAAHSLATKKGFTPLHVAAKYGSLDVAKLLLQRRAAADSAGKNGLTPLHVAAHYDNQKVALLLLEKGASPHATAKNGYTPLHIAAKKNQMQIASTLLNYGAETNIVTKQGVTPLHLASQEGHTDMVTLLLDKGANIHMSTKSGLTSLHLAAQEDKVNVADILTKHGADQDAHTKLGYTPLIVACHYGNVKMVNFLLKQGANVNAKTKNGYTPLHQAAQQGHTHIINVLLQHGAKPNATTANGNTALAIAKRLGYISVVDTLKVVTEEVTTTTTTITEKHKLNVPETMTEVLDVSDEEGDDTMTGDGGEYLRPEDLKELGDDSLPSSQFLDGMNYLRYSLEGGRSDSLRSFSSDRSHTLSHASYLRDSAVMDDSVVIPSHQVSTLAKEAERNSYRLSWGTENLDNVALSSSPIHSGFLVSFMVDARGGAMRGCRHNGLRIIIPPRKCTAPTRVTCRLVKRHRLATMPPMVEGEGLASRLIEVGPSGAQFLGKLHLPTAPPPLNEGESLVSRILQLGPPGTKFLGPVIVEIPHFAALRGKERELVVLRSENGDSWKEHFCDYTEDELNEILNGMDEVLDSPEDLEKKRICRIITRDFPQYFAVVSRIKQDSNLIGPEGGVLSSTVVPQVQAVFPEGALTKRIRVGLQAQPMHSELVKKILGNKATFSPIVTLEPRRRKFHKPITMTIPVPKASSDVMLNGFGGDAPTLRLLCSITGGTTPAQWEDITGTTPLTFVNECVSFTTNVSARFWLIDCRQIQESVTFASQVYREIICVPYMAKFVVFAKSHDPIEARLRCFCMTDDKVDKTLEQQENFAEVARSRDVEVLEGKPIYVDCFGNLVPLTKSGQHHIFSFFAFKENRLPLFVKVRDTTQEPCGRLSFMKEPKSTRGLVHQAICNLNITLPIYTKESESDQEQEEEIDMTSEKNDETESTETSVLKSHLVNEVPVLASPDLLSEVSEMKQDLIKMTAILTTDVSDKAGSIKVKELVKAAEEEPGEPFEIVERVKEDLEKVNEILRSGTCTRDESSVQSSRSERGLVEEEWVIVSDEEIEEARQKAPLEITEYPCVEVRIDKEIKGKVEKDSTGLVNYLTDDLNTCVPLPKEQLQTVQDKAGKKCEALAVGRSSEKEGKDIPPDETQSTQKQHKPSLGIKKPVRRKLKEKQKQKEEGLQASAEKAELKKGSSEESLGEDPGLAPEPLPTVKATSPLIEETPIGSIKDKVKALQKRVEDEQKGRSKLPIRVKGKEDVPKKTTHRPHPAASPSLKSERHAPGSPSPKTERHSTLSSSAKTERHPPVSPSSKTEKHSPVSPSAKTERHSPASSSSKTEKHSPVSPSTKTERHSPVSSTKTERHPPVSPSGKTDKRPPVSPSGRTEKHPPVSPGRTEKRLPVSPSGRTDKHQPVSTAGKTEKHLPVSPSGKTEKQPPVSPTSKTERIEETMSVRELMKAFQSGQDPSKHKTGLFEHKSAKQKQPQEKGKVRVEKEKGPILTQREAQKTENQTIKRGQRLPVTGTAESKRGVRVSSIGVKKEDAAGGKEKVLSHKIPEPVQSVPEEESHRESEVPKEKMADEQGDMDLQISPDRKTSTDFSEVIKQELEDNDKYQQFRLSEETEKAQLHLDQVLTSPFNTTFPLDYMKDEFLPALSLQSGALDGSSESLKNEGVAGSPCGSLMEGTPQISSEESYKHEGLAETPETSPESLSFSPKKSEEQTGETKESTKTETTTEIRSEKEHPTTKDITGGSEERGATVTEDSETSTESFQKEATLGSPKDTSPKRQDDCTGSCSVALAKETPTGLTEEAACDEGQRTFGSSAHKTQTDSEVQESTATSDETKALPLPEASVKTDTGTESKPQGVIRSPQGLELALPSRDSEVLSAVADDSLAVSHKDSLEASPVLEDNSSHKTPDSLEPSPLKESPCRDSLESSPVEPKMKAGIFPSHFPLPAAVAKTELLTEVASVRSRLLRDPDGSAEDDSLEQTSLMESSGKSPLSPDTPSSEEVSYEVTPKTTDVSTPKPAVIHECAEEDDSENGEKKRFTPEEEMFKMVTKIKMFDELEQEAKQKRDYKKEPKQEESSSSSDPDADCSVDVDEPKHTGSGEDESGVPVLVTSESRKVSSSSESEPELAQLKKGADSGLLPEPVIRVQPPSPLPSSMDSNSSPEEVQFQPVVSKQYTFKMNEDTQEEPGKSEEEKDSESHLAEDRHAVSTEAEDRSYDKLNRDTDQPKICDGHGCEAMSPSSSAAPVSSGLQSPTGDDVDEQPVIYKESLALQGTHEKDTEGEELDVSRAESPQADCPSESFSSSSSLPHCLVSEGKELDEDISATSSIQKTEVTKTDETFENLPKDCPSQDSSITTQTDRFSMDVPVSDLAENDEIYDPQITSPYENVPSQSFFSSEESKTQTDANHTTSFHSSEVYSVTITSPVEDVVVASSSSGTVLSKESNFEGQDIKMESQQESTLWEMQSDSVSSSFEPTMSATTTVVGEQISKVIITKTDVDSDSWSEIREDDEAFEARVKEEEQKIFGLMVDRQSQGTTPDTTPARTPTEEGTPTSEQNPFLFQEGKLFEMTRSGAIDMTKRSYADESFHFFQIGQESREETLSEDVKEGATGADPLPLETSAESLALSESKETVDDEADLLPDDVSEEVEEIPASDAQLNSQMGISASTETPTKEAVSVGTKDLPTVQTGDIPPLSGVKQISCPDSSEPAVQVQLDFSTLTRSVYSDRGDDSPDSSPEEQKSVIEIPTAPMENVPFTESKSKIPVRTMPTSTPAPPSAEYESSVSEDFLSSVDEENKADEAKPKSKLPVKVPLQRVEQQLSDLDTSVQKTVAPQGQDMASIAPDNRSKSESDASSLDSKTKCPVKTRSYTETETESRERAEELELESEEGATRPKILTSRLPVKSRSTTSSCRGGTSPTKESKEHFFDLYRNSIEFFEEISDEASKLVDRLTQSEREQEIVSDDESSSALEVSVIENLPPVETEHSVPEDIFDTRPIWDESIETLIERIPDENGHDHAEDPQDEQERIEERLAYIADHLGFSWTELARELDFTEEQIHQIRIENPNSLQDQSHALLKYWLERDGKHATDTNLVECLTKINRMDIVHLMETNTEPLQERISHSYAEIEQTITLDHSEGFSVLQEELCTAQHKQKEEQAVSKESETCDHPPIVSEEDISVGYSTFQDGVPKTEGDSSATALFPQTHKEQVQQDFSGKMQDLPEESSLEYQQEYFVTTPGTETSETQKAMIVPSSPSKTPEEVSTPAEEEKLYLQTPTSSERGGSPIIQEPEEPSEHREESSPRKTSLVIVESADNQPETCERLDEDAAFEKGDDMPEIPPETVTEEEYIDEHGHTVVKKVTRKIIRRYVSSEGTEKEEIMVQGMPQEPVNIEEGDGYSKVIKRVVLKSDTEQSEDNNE
Method: Cell culture aid transfection: Human kidney 293 cells were cultured in DMEM medium (Gibco) supplemented with penicillin, streptomycin, L-glutamine, and 10% fetal bovine serum (Hyclone). The pMyc-L1-CAM or pL1-CAM-GFP expression constructs were transfected into cultured human kidney 293 cells using Lipofectamine plus (Invitrogen) according to manufacturer instructions. Cells were cultured for 24-48 hours and then used, or cultured continuously in the presence of 0.5 μg.mL G418 (Gibco) to select for stably transfected cells lines, to generate stable pooled lines of L1-CAM-expressing cells.
In some instances, transfected 293 cells were treated with neural growth factor (NGF) or epidermal growth factor (EGF) to stimulate phosphorylation of tyrosine 1229 (Y1229) of the L1-CAM cytoplasmic domain, and thereby inhibit ankyrin binding. In these cases, cells were treated with 50 ng/mL EGF (Gibco) or 100 ng/mL NGF (Gibco) for 1 hour prior to the assay. […]
Ankyrin and L1-CAM were detected by indirect immunofluorescence in double-labeled confocal sections through cell aggregates to permit the visualization of L1 and ankyrinB at the cell membrane. Expression of myc-L1-CAM was detected using a polyclonal anti-L1-CAM rabbit antibody. […] Ankyrin was detected using a monoclonal anti-ankyrinB mouse antibody (BD PharMingen). […]
Quantification of ankyrin immunolocalization: Confocal micrographs were then used to quantify the degree of ankyrin localization to the cell membrane of myc-L1-CAM expressing cells. Images were analyzed using ImageJ (NIH) under Macintosh OSX. The method for quantifying ankyrinB localization to the membrane uses densitometry of a line scan perpendicular to and crossing a cell-cell junction. […]
The densitometry intensity profile of the scanned line was used to determine a minimum ankyrinB signal for comparison to the value of the ankyrinB signal at the point where the maximum signal in the L1-CAM channel occurs. […] Minima were determined from the regions of the line overlapping the cytoplasm of either of the two cells. […]

Row | Sequence | inhibition of calcium current [1] | ankyrin co-localization with L1-CAM at the cell membrane (L1-CAM-ankyrin interactions) [2]
1 | RQIKIWFQNRRMKWKKQFNEDGSFIGQF [AP-YF] | 83+17% | inhibited L1-CAM-ankyrin interactions
2 | RQIKIWFQNRRMKWKKFQGIFSGDENFQ [AP-Scramble] | no significant effect | no detectible effects
